Data published in patent US12077503B2, “Substituted cyclic amides and their use as herbicides” (FMC CORPORATION, priority 2015, dated 2024).

What was measured:
Format in all cases: in vivo
[1] = tested on: ivy-leaved morning glory (Ipomoea hederacea); assay: Test G Post-Emergence Protocol; conditions: Ipomoea, post-emergence, 312 h, read-out: Morningglory, Ivy-leaved damage rating; for pest or weed control at 15.625 g/ha: 15.625 g ai/ha, evaluated after 13 days (100=total damage to plant; 0=no damage to plant); for pest or weed control at 62.5 g/ha: 62.5 g ai/ha; for pest or weed control at 62.5 g/ha / pest or weed control at 250 g/ha: evaluated after 13 days, 100=total damage to plant, 0=no damage to plant; for pest or weed control at 250 g/ha: 250 g ai/ha
In short: (§1)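 Eight days post-sowing, plants received a spray of test compound (acetone/water 50:50, 0.5% Tween 20) at 15.625, 62.5 or 250 g/ha. Glasshouse regime thereafter: 24/16 °C, 14 h light, 65% humidity. Assessment after 13 days on a 0–100 damage scale.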

[2] = tested on: giant foxtail (Setaria faberi); assay: Test G Post-Emergence Protocol; conditions: Setaria faberi, post-emergence, 312 h, read-out: Foxtail, Giant damage rating; for pest or weed control at 15.625 g/ha: 15.625 g ai/ha, evaluated after 13 days (100=total damage to plant; 0=no damage to plant); for pest or weed control at 62.5 g/ha: 62.5 g ai/ha; for pest or weed control at 62.5 g/ha / pest or weed control at 250 g/ha: evaluated after 13 days, 100=total damage to plant, 0=no damage to plant; for pest or weed control at 250 g/ha: 250 g ai/ha
In short: as §1

[3] = tested on: velvetleaf (Abutilon theophrasti); assay: Test G Post-Emergence Protocol; conditions: Abutilon theophrasti, post-emergence, 312 h, read-out: Velvetleaf damage rating; for pest or weed control at 15.625 g/ha: 15.625 g ai/ha, evaluated after 13 days (100=total damage to plant; 0=no damage to plant); for pest or weed control at 62.5 g/ha: 62.5 g ai/ha; for pest or weed control at 62.5 g/ha / pest or weed control at 250 g/ha: evaluated after 13 days, 100=total damage to plant, 0=no damage to plant; for pest or weed control at 250 g/ha: 250 g ai/ha
In short: as §1

[4] = tested on: redroot pigweed (Amaranthus retroflexus); assay: Test G Post-Emergence Protocol; conditions: Amaranthus retroflexus, post-emergence, 312 h, read-out: Pigweed, Redroot damage rating; for pest or weed control at 15.625 g/ha: 15.625 g ai/ha, evaluated after 13 days (100=total damage to plant; 0=no damage to plant); for pest or weed control at 62.5 g/ha: 62.5 g ai/ha; for pest or weed control at 62.5 g/ha / pest or weed control at 250 g/ha: evaluated after 13 days, 100=total damage to plant, 0=no damage to plant; for pest or weed control at 250 g/ha: 250 g ai/ha
In short: as §1

corn (Zea mays) [5] = assay: Test G Post-Emergence Protocol; conditions: Zea mays, post-emergence, 312 h, read-out: Corn damage rating; for plant injury at 15.625 g/ha: 15.625 g ai/ha, evaluated after 13 days (100=total damage to plant; 0=no damage to plant); for plant injury at 62.5 g/ha: 62.5 g ai/ha; for plant injury at 62.5 g/ha / plant injury at 250 g/ha: evaluated after 13 days, 100=total damage to plant, 0=no damage to plant; for plant injury at 250 g/ha: 250 g ai/ha
In short: as §1

[6] = tested on: barnyardgrass (Echinochloa crus-galli); assay: Test G Post-Emergence Protocol; conditions: Echinochloa crus-galli, post-emergence, 312 h, read-out: Barnyardgrass damage rating; for pest or weed control at 15.625 g/ha: 15.625 g ai/ha, evaluated after 13 days (100=total damage to plant; 0=no damage to plant); for pest or weed control at 62.5 g/ha: 62.5 g ai/ha; for pest or weed control at 62.5 g/ha / pest or weed control at 250 g/ha: evaluated after 13 days, 100=total damage to plant, 0=no damage to plant; for pest or weed control at 250 g/ha: 250 g ai/ha
In short: as §1

[7] = tested on: ivy-leaved morning glory (Ipomoea hederacea); assay: Test G Pre-Emergence Protocol; conditions: Ipomoea, pre-emergence, 312 h, evaluated after 13 days; for pest or weed control at 15.625 g/ha: 15.625 g ai/ha; for pest or weed control at 62.5 g/ha: 62.5 g ai/ha, 100=total damage to plant, 0=no damage to plant, read-out: Morningglory, Ivy-leaved damage rating
In short: (§2)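 Test compound in 0.5% Tween 20 acetone/water (50:50) was applied at three rates (15.625, 62.5, 250 g/ha) to soil sown one day earlier. After 13 days plants were scored for injury, where 0 means unaffected and 100 means completely damaged.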

[8] = tested on: giant foxtail (Setaria faberi); assay: Test G Pre-Emergence Protocol; conditions: Setaria faberi, pre-emergence, 312 h, evaluated after 13 days; for pest or weed control at 15.625 g/ha: 15.625 g ai/ha; for pest or weed control at 15.625 g/ha / pest or weed control at 250 g/ha: read-out: Foxtail, Giant damage rating (100=total damage to plant; 0=no damage to plant); for pest or weed control at 62.5 g/ha: 62.5 g ai/ha, 100=total damage to plant, 0=no damage to plant, read-out: Foxtail, Giant damage rating; for pest or weed control at 250 g/ha: 250 g ai/ha
In short: as §2

[9] = tested on: velvetleaf (Abutilon theophrasti); assay: Test G Pre-Emergence Protocol; conditions: Abutilon theophrasti, pre-emergence, 312 h, evaluated after 13 days; for pest or weed control at 15.625 g/ha: 15.625 g ai/ha; for pest or weed control at 15.625 g/ha / pest or weed control at 250 g/ha: read-out: Velvetleaf damage rating (100=total damage to plant; 0=no damage to plant); for pest or weed control at 62.5 g/ha: 62.5 g ai/ha, 100=total damage to plant, 0=no damage to plant, read-out: Velvetleaf damage rating; for pest or weed control at 250 g/ha: 250 g ai/ha
In short: as §2

[10] = tested on: redroot pigweed (Amaranthus retroflexus); assay: Test G Pre-Emergence Protocol; conditions: Amaranthus retroflexus, pre-emergence, 312 h, evaluated after 13 days; for pest or weed control at 15.625 g/ha: 15.625 g ai/ha; for pest or weed control at 15.625 g/ha / pest or weed control at 250 g/ha: read-out: Pigweed, Redroot damage rating (100=total damage to plant; 0=no damage to plant); for pest or weed control at 62.5 g/ha: 62.5 g ai/ha, 100=total damage to plant, 0=no damage to plant, read-out: Pigweed, Redroot damage rating; for pest or weed control at 250 g/ha: 250 g ai/ha
In short: as §2

corn (Zea mays) [11] = assay: Test G Pre-Emergence Protocol; conditions: Zea mays, pre-emergence, 312 h, evaluated after 13 days; for plant injury at 15.625 g/ha: 15.625 g ai/ha; for plant injury at 15.625 g/ha / plant injury at 250 g/ha: read-out: Corn damage rating (100=total damage to plant; 0=no damage to plant); for plant injury at 62.5 g/ha: 62.5 g ai/ha, 100=total damage to plant, 0=no damage to plant, read-out: Corn damage rating; for plant injury at 250 g/ha: 250 g ai/ha
In short: as §2

[12] = tested on: barnyardgrass (Echinochloa crus-galli); assay: Test G Pre-Emergence Protocol; conditions: Echinochloa crus-galli, pre-emergence, 312 h, evaluated after 13 days; for pest or weed control at 15.625 g/ha: 15.625 g ai/ha; for pest or weed control at 15.625 g/ha / pest or weed control at 250 g/ha: read-out: Barnyardgrass damage rating (100=total damage to plant; 0=no damage to plant); for pest or weed control at 62.5 g/ha: 62.5 g ai/ha, 100=total damage to plant, 0=no damage to plant, read-out: Barnyardgrass damage rating; for pest or weed control at 250 g/ha: 250 g ai/ha
In short: as §2

[13] = read-out: Morningglory, Ivy-leaved damage rating (100=total damage to plant; 0=no damage to plant)

Row | SMILES | pest or weed control at 15.625 g/ha [1] [%] | pest or weed control at 62.5 g/ha [1] [%] | pest or weed control at 250 g/ha [1] [%] | pest or weed control at 15.625 g/ha [2] [%] | pest or weed control at 62.5 g/ha [2] [%] | pest or weed control at 250 g/ha [2] [%] | pest or weed control at 15.625 g/ha [3] [%] | pest or weed control at 62.5 g/ha [3] [%] | pest or weed control at 250 g/ha [3] [%] | pest or weed control at 15.625 g/ha [4] [%] | pest or weed control at 62.5 g/ha [4] [%] | pest or weed control at 250 g/ha [4] [%] | plant injury at 15.625 g/ha (corn (Zea mays) [5]) [%] | plant injury at 62.5 g/ha (corn (Zea mays) [5]) [%] | plant injury at 250 g/ha (corn (Zea mays) [5]) [%] | pest or weed control at 15.625 g/ha [6] [%] | pest or weed control at 62.5 g/ha [6] [%] | pest or weed control at 250 g/ha [6] [%] | pest or weed control at 15.625 g/ha [7, 13] [%] | pest or weed control at 62.5 g/ha [7] [%] | further results
1 | CN1C[C@@H](c2cccc(C(F)(F)F)c2)[C@H](C(=O)Nc2cccnc2F)C1=O [Compound 1823] | 0 | 0 | 0 | 0 | 0 | 0 | 0 | 0 | 0 | 0 | 0 | 0 | 0 | 0 | 0 | 0 | 0 | 0 | 0 | 0 | pest or weed control at 250 g/ha ([7]; 250 g ai/ha, read-out: Morningglory, Ivy-leaved damage rating (100=total damage to plant; 0=no damage to plant)): 0%; pest or weed control at 15.625 g/ha [8]: 0%; pest or weed control at 62.5 g/ha [8]: 0%; pest or weed control at 250 g/ha [8]: 0%; pest or weed control at 15.625 g/ha [9]: 0%; pest or weed control at 62.5 g/ha [9]: 0%; pest or weed control at 250 g/ha [9]: 0%; pest or weed control at 15.625 g/ha [10]: 0%; pest or weed control at 62.5 g/ha [10]: 0%; pest or weed control at 250 g/ha [10]: 0%; plant injury at 15.625 g/ha (corn (Zea mays) [11]): 0%; plant injury at 62.5 g/ha (corn (Zea mays) [11]): 0%; plant injury at 250 g/ha (corn (Zea mays) [11]): 0%; pest or weed control at 15.625 g/ha [12]: 0%; pest or weed control at 62.5 g/ha [12]: 0%; pest or weed control at 250 g/ha [12]: 0%
2 | CN1C[C@H](c2cc(C(C)(C)C)ncn2)[C@@H](C(=O)Nc2ccc(F)c(F)c2F)C1=O (racemic) [Compound 1668] | 0 | 0 | 0 | 0 | 0 | 10 | 0 | 0 | 0 | 0 | 0 | 0 | 0 | 0 | 0 | 0 | 0 | 0 | 0 | 0 | pest or weed control at 15.625 g/ha [8]: 0%; pest or weed control at 62.5 g/ha [8]: 0%; pest or weed control at 250 g/ha [8]: 20%; pest or weed control at 15.625 g/ha [9]: 0%; pest or weed control at 62.5 g/ha [9]: 0%; pest or weed control at 250 g/ha [9]: 0%; pest or weed control at 15.625 g/ha [10]: 0%; pest or weed control at 62.5 g/ha [10]: 0%; pest or weed control at 250 g/ha [10]: 0%; plant injury at 15.625 g/ha (corn (Zea mays) [11]): 0%; plant injury at 62.5 g/ha (corn (Zea mays) [11]): 0%; plant injury at 250 g/ha (corn (Zea mays) [11]): 0%; pest or weed control at 15.625 g/ha [12]: 0%; pest or weed control at 62.5 g/ha [12]: 0%; pest or weed control at 250 g/ha [12]: 20%
